Data taken from US20260200926A1, “TREM2 MODULATORS” (Muna Therapeutics ApS, priority 2022, published 2026).

Target: T1, Human TREM2 (Homo sapiens, UniProt Q9NZC2)
T1 construct: expressed in transfected cells
Assay: Human TREM2 activity: cellular phosphorylation of Syk (AlphaLISA SureFire Ultra p-SYK) in HEK293/DAP12+TREM2 stable cell line
Assay type: cell-based
Settings: for Emax: HEK293, maximal response relative to reference agonist example 1B (remaining examples), read-out: Emax; for EC50: phospho-Syk AlphaLISA signal, HEK293/DAP12+TREM2 cells, concentration giving 50% of maximal response, read-out: EC50
Text: Human TREM2, in vitro Measurement of Triggering Receptor Expressed on Myeloid Cells 2 activity using cellular phosphorylation of Spleen Tyrosine Kinase (“Syk”) Assay
HEK-293 cells were co-transfected with separate plasmids encoding TREM2 and DAP12 to generate a stable cell line. After antibiotic selection, functional clone pool analysis and two successive limiting dilutions, the final clone “HEK293/DAP12+TREM2” underwent a qPCR analysis and a pharmacological validation.
TREM2 signaling through DAP12 was monitored in the HEK293/DAP12+TREM2 stable cell line by measuring the phosphorylation levels of the Syk kinase using the commercially available AlphaLISA SureFire Ultra p-SYK (Tyr525/526) Assay Kit (PerkinElmer #ALSU-PSYK), based on the Perkin Elmer AlphaScreen/AlphaLISA technology.
Compounds are transferred to the test plate and tested in full dose response, 8 concentrations in quadruplicate data points. Compound serial dilutions were performed at Cybi-Felix instrument in 100% DMSO and the dose response curves were assembled in automated fashion in 384MPT at Hamilton STARlet instrument. All the stock solutions were prepared at 20 mM in 100% DMSO. For compounds testing, the starting concentration was 100 μM, dilution steps 1:6. […] Finally, a 384MPT reformatted for all compounds at 8 concentrations, quadruplicates, was used as “mother to child” process with a CyBi®-Well dispenser in which 1 μL of each compound was moved into a destination plate pre-filled with 65.6 μL of EMEM cell culture medium (BIOWHITTAKER_cat.BE12-125F), thus obtaining 3× concentrated compounds working solution. In columns 1-2 and 23-24 the control wells were added. In particular, dose response curves of a reference control agonist were included in column 1 and 24 as reference control agonist (Reference control agonists used include Human TREM2 polyclonal Antibody AF1828: R&D Systems; Human TREM2 monoclonal Antibody MAB1828: R&D Systems). The dose response curves were tested starting at 30 μM, dilution step 1:6. Both “source” compound plate and “destination” compound plate were barcoded and a relationship between the two plates was thus generated.
HEK293/DAP12+TREM2 cells were cultured in EMEM medium supplemented with IX Penicillin/Streptomycin (BIOWHITTAKER_cat.DE17-602E), ULTRAGLUTAMINE I 200 mM, 10% Fetal Bovine Serum plus antibiotics referred to as “HEK293 Culture Medium”. The day before the experiment, cells were detached by gentle wash with DPBS, followed by 5 min incubation at 37° C. with Trypsin solution. Cells were then diluted in HEK293 Culture Medium without antibiotics, counted and seeded into 384-well poly-D-Lysine coated microplates black/clear bottom (GREINER 781946) at a density of 10,000 cells/well in 25 μL/well by the use of a MATRIX WellMate dispenser. Plates were placed into a humidified cell culture incubator at 37° C. with 5% CO2 until the experimental day. 20-24 hours after seeding mature medium was removed and replaced with 10 μL/well of EMEM cell medium supplemented with 0.1% Pluronic F-68 non-ionic surfactant (Thermofisher, 24040032), referred to as “Assay Buffer”, using the CyBi®-Well instrument. Then 5 μL/well of Assay Buffer containing 3× concentrated test compounds or the reference control agonist (in 0.5% final DMSO concentration) were added to the cells with the CyBi®-Well instrument. Cell plates were incubated for 30 min into a humidified cell culture incubator at 37° C. with 5% CO2·, then the medium was removed by manually discard. 20 μL/well of lysis buffer were dispensed using the CyBi®-Well instrument and plates were incubated for 10 min at room temperature on a plate shaker (350 rpm). Then, 10 μL/well of lysate were transferred to the Alpha plates. The CyBi®-Well instrument was used to dispense 5 μL/well of AlphaLISA Acceptor Bead Solution in IX Immunoassay buffer (Perkin Elmer AL000F). Then the plates were sealed with Heat sealing foil, shaked for 2 minutes (350 rpm) and incubated for 1 hour at room temperature.

T1 sequence (Q9NZC2 19-230): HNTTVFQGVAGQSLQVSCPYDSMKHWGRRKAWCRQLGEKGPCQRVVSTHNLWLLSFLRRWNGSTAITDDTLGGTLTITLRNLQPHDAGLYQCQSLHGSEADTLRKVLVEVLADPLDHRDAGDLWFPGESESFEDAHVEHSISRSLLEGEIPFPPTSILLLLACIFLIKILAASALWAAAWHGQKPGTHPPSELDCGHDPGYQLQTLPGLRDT
T1 sequence (O43914 22-113 partner): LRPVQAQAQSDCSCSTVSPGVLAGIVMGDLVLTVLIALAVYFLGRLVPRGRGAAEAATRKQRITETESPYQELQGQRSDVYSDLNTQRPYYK

| SMILES | Emax [%] | EC50 [nM] |
| --- | --- | --- |
| Cc1nc2c(-c3ccc(C(F)(F)F)cc3F)cc([C@H]3CCO[C@@H](c4cnn(C5CC5)c4)C3)cc2c(=O)n1C (single isomer, unassigned) [Example 118B] | < 75 | > 1000 |
| Cc1cc([C@@H]2CN(c3nc(-c4ccc(Cl)cc4F)c4nc(C)n(C)c(=O)c4n3)CCO2)ccn1 (single isomer, unassigned) [Example 23A] | < 75 | 10 to 100 |
| Cc1cc([C@H]2CN(c3cc4c(=O)n(C)c(C)nc4c(-c4ccc(C(F)F)nc4)n3)C[C@@H](C)O2)ccn1 (single isomer, unassigned) [Example 192B] | 75 to 110 | 1 to 10 |
| Cc1nc2c(-c3ccc(Cl)cc3F)nc(N3CCOC(c4cnn(C5COC5)c4)C3)nc2c(=O)n1C (stereo not drawn) [Example 40, 8-(4-chloro-2-fluorophenyl)-2,3-dimethyl-6-(2-(1-(oxetan-3-yl)-1H-pyrazol-4-yl)morpholino)pyrimido[5,4-d]pyrimidin-4 (3H)-one] | 75 to 110 | 10 to 100 |
| Cc1cc([C@H]2CN(c3nc(-c4ccc(C(F)(F)F)cc4F)c4nc(C)n(C)c(=O)c4n3)C[C@@H](C)O2)ccn1 (single isomer, unassigned) [Example 179B] | 75 to 110 | < 1 |
| Cc1nc2c(-c3ccc(Cl)cc3F)nc(N3CCN(CC(F)(F)F)C(c4cnn(C)c4)C3)nc2c(=O)n1C (stereo not drawn) [Example 33, 8-(4-chloro-2-fluorophenyl)-2,3-dimethyl-6-(3-(1-methyl-1H-pyrazol-4-yl)-4-(2,2,2-trifluoroethyl)piperazin-1-yl)pyrimido[5,4-d]pyrimidin-4(3H)-one] | < 75 | 10 to 100 |
| Cc1nc2c(-c3cc(F)c(F)cc3F)nc(N3C[C@@H](c4cnn(C)c4)OC(C)(C)C3)nc2c(=O)n1C (single isomer, unassigned) [Example 101A] | 75 to 110 | 10 to 100 |
| Cc1cc([C@H]2CN(c3nc(-c4ccc(F)cc4F)c4nc(C)n(C)c(=O)c4n3)CC(C)(C)O2)ccn1 (single isomer, unassigned) [Example 170B] | 75 to 110 | 1 to 10 |
| Cc1ncc([C@H]2C[C@@H](c3nc(-c4ccc(Cl)cc4F)c4nc(C)n(C)c(=O)c4n3)CCO2)cn1 (racemic) [Example 37, 8-(4-chloro-2-fluorophenyl)-2,3-dimethyl-6-((2R,4S)-2-(2-methylpyrimidin-5-yl)tetrahydro-2H-pyran-4-yl)pyrimido[5,4-d]pyrimidin-4 (3H)-one] | 75 to 110 | 100 to 1000 |
| Cc1nc2c(-c3ccc(Cl)cc3F)cc(N3C[C@@H](c4cnn(C)c4)OC(C)(C)C3)cc2c(=O)n1C (single isomer, unassigned) [Example 117A] | 75 to 110 | 10 to 100 |
| Cc1nc2c(-c3cc(F)c(F)cc3F)nc(N3CCO[C@@H](c4cnn(C)c4)C3)nc2c(=O)n1C (single isomer, unassigned) [Example 27B] | 75 to 110 | 10 to 100 |
| Cc1nc2c(-c3ccc(F)cc3F)nc([C@@H]3CCO[C@H](c4cnn(C5CC5)c4)C3)nc2c(=O)n1C (single isomer, unassigned) [Example 120A] | < 75 | > 1000 |
| COCC1CN(c2nc(-c3ccc(Cl)cc3F)c3nc(C)n(C)c(=O)c3n2)CCO1 (stereo not drawn) [Example 52, 8-(4-chloro-2-fluorophenyl)-6-(2-(methoxymethyl)morpholino)-2,3-dimethylpyrimido[5,4-d]pyrimidin-4(3H)-one] | 75 to 110 | 100 to 1000 |
| Cc1cc([C@H]2CN(c3nc(-c4ccc(C(F)(F)F)nc4)c4nc(C)n(C)c(=O)c4n3)CCO2)ccn1 (single isomer, unassigned) [Example 22B] | 75 to 110 | 1 to 10 |
| Cc1nc2c(-c3ccc(Cl)cc3F)nc([C@@H]3C[C@@H]3c3cnn(C)c3)cc2c(=O)n1C (single isomer, unassigned) [Example 148A] | < 75 | > 1000 |
| Cc1nc2c(-c3ccc(Cl)cc3F)nc(N3CCCc4ccncc4C3)nc2c(=O)n1C [Example 86, 8-(4-chloro-2-fluorophenyl)-2,3-dimethyl-6-(5,6,7,9-tetrahydro-8H-pyrido[3,4-c]azepin-8-yl)pyrimido[5,4-d]pyrimidin-4(3H)-one] | < 75 | > 1000 |
| Cc1nc2c(-c3ccc(C(F)(F)F)nc3)nc(N3CCO[C@@H](c4cnn(C)c4)C3)cc2c(=O)n1C (single isomer, unassigned) [Example 127A] | < 75 | 100 to 1000 |
| Cc1nc2c(-c3ccc(C(F)(F)F)cc3F)nc(N3CCOC(c4cnn(C)c4)C3)nc2c(=O)n1C (stereo not drawn) [Example 10, 8-(2-fluoro-4-(trifluoromethyl)phenyl)-2,3-dimethyl-6-(2-(1-methyl-1H-pyrazol-4-yl)morpholino)pyrimido[5,4-d]pyrimidin-4(3H)-one] | 75 to 110 | 100 to 1000 |
| Cc1nc2c(-c3ccc(C(F)(F)F)cc3F)nc(N3C[C@@H](c4cnn(C)c4)OC(C)(C)C3)cc2c(=O)n1C (single isomer, unassigned) [Example 134A] | 75 to 110 | 10 to 100 |
| Cc1nc2c(-c3ccc(Cl)cc3F)nc(N3CC[C@H](Oc4cnn(C)c4)C3)nc2c(=O)n1C [Example 74, (S)-8-(4-chloro-2-fluorophenyl)-2,3-dimethyl-6-(3-((1-methyl-1H-pyrazol-4-yl)oxy)pyrrolidin-1-yl)pyrimido[5,4-d]pyrimidin-4 (3H)-one] | < 75 | > 1000 |
| COC1CN(C2CCCN(c3nc(-c4ccc(Cl)cc4F)c4nc(C)n(C)c(=O)c4n3)C2)C1 (stereo not drawn) [Example 79, 8-(4-chloro-2-fluorophenyl)-6-(3-(3-methoxyazetidin-1-yl)piperidin-1-yl)-2,3-dimethylpyrimido[5,4-d]pyrimidin-4 (3H)-one] | < 75 | > 1000 |
| Cc1cc([C@@H]2CN(c3nc(-c4ccc(F)cc4F)c4nc(C(F)(F)F)n(C)c(=O)c4c3F)CCO2)ccn1 (single isomer, unassigned) [Example 174A] | < 75 | 10 to 100 |
| Cc1cc([C@H]2CN(c3cc4c(=O)n(C)c(C)nc4c(-c4ccc(C(F)(F)F)cc4F)n3)CC(C)(C)O2)ccn1 (single isomer, unassigned) [Example 163B] | 75 to 110 | 1 to 10 |
| Cc1nc2c(-c3cc(F)c(F)cc3F)nc(N3C[C@H](c4cnn(C)c4)OC(C)(C)C3)nc2c(=O)n1C (single isomer, unassigned) [Example 101B] | < 75 | > 1000 |
| Cc1nc2c(-c3cc(C(F)(F)F)nn3C)nc(N3CCOC(c4cnn(C)c4)C3)nc2c(=O)n1C (stereo not drawn) [Example 99, 2,3-dimethyl-6-(2-(1-methyl-1H-pyrazol-4-yl)morpholino)-8-(1-methyl-3-(trifluoromethyl)-1H-pyrazol-5-yl)pyrimido[5,4-d]pyrimidin-4 (3H)-one] | < 75 | 100 to 1000 |
| Cc1nc2c(-c3ccc(Cl)cc3F)nc(N3CCOC4(CCN(C)CC4)C3)nc2c(=O)n1C [Example 56, 8-(4-chloro-2-fluorophenyl)-2,3-dimethyl-6-(9-methyl-1-oxa-4,9-diazaspiro[5.5]undecan-4-yl)pyrimido[5,4-d]pyrimidin-4(3H)-one] | < 75 | > 1000 |
| Cc1nc2c(-c3ccc(C(F)(F)F)cc3F)nc(N3CCO[C@@H](c4cnn(C5CC5)c4)C3)nc2c(=O)n1C (single isomer, unassigned) [Example 20B] | 75 to 110 | 1 to 10 |
